Results published in patent publication US6693192B1, “Hypolipidemic and antioxidant morpholine derivatives” (Elpen S.A., priority 1999, dated 2004).
Marks after values point to notes of the source that are not given here.

System: hyperlipidemia induced by the Triton WR 1339 in rats
Test: Hypolipidemic activity: inhibition of hyperlipidemia induced by Triton WR 1339 in rats
Format: in vivo, rat
Conditions: male Fischer rats, Triton WR 1339 200 mg/Kg i.p., dose 56 μmol/kg ip, plasma after 24 hours
Procedure: The hypocholesterolemic and hypolipidemic activity of the synthesised compounds was performed by the inhibition of the hyperlipidemia induced by the Triton WR 1339 in rats. Triton WR 1339 as an intraperitoneal (i.p.) injection acts due to induction of HMG-CoA reductase. […] After 24 hours, blood was taken from the celiac aorta and collected to heparinised tubes.

CC(C)(Sc1cc(C(C)(C)C)c(O)c(C(C)(C)C)c1)Sc1cc(C(C)(C)C)c(O)c(C(C)(C)C)c1 [Probucol]
Percent decrease compared to controls, LDL (plasma Low Density Lipoprotein): 18^NS %
Percent decrease compared to controls, TC (plasma Total Cholesterol): 18* %
Percent decrease compared to controls, TG (plasma Triglyceride): 11^NS %
